The record followed here is ChEMBL document CHEMBL1152406, “Conformationally restricted homotryptamines. Part 5: 3-(trans-2-aminomethylcyclopentyl)indoles as potent selective serotonin reuptake inhibitors” (Bioorg Med Chem Lett, 2009).

For orientation: IC50 means the concentration that inhibits the measured activity by half. Read a high IC50 as weaker potency.

The target in test [1] is Sodium-dependent serotonin transporter (Homo sapiens, UniProt P31645). The test can be described thus: Displacement of [125I]RTI-55 from human SERT expressed in HEK293 cells. The format is cell-based. (Loss of bound radioactivity is the signal in a displacement assay; it reports binding, not function.)
Chain of Sodium-dependent serotonin transporter (P31645 whole entry): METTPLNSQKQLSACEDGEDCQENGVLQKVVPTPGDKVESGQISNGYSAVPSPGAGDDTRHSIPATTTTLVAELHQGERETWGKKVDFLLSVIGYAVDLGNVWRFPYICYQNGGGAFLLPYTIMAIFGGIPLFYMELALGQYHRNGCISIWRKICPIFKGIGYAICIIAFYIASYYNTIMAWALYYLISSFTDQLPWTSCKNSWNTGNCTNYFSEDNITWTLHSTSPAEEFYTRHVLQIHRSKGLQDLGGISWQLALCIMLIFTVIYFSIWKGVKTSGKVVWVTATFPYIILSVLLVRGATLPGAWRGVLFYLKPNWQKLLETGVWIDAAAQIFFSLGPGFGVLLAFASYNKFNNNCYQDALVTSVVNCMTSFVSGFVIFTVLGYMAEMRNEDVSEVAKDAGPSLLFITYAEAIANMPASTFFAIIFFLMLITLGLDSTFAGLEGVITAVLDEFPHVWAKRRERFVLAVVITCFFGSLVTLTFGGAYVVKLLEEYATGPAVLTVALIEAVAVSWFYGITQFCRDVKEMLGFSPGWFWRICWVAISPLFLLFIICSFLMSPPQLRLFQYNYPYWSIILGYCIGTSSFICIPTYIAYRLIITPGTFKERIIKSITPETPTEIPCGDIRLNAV
In test [2] the target is Sodium-dependent dopamine transporter (Homo sapiens, UniProt Q01959). The experiment in a line: Displacement of [125I]RTI-55 from human DAT expressed in HEK293 cells. The format is cell-based.
Chain of Sodium-dependent dopamine transporter (Q01959 whole entry): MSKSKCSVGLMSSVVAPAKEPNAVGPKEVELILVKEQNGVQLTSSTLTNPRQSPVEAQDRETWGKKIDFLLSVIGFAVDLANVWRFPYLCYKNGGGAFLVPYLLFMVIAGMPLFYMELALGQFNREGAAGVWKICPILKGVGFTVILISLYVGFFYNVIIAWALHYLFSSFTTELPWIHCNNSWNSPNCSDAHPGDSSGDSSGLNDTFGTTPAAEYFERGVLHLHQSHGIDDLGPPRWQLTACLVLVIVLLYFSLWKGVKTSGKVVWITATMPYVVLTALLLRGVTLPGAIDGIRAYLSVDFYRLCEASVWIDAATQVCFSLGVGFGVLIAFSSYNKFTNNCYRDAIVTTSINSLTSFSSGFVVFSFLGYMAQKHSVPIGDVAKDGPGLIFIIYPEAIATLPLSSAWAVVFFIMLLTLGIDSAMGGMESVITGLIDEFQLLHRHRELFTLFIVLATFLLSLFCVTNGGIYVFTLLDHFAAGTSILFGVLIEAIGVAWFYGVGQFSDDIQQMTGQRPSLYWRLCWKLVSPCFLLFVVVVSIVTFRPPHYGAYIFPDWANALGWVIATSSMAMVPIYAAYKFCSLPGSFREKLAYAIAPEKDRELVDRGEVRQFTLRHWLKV
Test [3] relates to Rattus norvegicus. The experiment in a line: Increase in extracellular serotonin level in frontal cortex of awake and free moving rat at 5 mg/kg, po by microdialysis relative to basal level. The format is functional.
The target in test [4] is Sodium-dependent noradrenaline transporter (Homo sapiens, UniProt P23975). The test can be described thus: Displacement of [125I]nisoxetine from human NET expressed in HEK293 cells. Type of test: cell-based.
Chain of Sodium-dependent noradrenaline transporter (P23975 whole entry): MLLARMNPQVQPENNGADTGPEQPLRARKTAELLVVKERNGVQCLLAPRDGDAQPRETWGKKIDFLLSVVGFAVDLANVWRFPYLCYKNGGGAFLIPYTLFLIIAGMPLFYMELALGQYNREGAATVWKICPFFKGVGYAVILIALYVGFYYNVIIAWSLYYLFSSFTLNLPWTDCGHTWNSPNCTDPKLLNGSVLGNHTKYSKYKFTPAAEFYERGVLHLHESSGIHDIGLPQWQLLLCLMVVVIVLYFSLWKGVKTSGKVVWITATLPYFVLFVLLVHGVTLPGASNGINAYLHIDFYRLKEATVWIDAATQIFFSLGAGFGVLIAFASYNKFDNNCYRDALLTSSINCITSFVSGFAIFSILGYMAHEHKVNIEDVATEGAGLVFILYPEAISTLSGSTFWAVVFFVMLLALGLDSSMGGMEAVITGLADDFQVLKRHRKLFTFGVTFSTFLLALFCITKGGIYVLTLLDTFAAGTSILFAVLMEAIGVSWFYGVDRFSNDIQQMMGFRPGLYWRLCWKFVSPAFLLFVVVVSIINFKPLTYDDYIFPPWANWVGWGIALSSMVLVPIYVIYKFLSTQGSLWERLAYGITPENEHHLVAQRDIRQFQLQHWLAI
In test [5] the test system is Rattus norvegicus. The experiment in a line: Increase in extracellular serotonin level in frontal cortex of awake and free moving rat at 1 mg/kg, po by microdialysis relative to basal level. Type of test: functional.
Test [6] has as its system Rattus norvegicus. The test can be described thus: Increase in extracellular serotonin level in frontal cortex of awake and free moving rat at 0.3 to 3 mg/kg, po by microdialysis. Type of test: functional, organism-based.

The source made the active and inactive calls. The calls are words filed in the database; no cut-off is given here.

In the case of `CN(C)C[C@H]1CCC[C@@H]1c1c[nH]c2ccc(C#N)cc12` (racemic), the 50% inhibitory concentration (IC50) in test [1] was determined as 0.32 nM.
As to `CN(C)C[C@@H]1CCC[C@@H]1c1c[nH]c2ccc(C#N)cc12`, in test [1], the IC50 is 1.2 nM.
The compound `CN(C)C[C@H]1CCC[C@H]1c1c[nH]c2ccc(C#N)cc12` had a half-inhibitory concentration (IC50) in test [1] of 130 nM.
For the compound `CN(C)C[C@H]1CCC[C@@H]1c1c[nH]c2ccc(C#N)cc12` [listing 1 of 2 here], the IC50 stood at 690 nM in test [2], 7900 nM in test [4] and 0.13 nM in test [1]. In addition, the Activity with Rattus norvegicus [3] and in the test on Rattus norvegicus [5] was over 300% in each case.
On to `CN(C)C[C@H]1CCC[C@@H]1c1c[nH]c2ccc(C#N)cc12` [listing 2 of 2 here], for which the result with Rattus norvegicus [6] was Active.
In turn, `CCN(CC)C[C@H]1CCC[C@@H]1c1c[nH]c2ccc(C#N)cc12` (racemic) gave an IC50 in test [1] of 240 nM.
In turn, `N#Cc1ccc2[nH]cc([C@H]3CCC[C@@H]3CN3CCCC3)c2c1` (racemic) came in with an IC50 in test [1] of 22 nM.
As to `CN(C)C[C@@H]1CCC[C@H]1c1c[nH]c2ccc(C#N)cc12`, in test [1], the IC50 amounted to 58 nM.
Turning to `CN(Cc1ccccc1)C[C@H]1CCC[C@@H]1c1c[nH]c2ccc(C#N)cc12` (racemic), the IC50 in test [1] is 85 nM.
As for `CN(C)C[C@@H]1CCC[C@@H]1c1c[nH]c2ccc(C#N)cc12` (racemic), in test [1], the IC50 is 2.6 nM.
As to `CN(C)C[C@H]1C[C@@H]1c1c[nH]c2ccc(C#N)cc12`, the IC50 in test [2] was determined as 4200 nM; in test [4], 9200 nM; in test [1] it was 0.36 nM.
In turn, `CCN(C)C[C@H]1CCC[C@@H]1c1c[nH]c2ccc(C#N)cc12` (racemic) gave an IC50 in test [1] of 10 nM.
As to `CNC[C@H]1CCC[C@@H]1c1c[nH]c2ccc(C#N)cc12` (racemic), the IC50 in test [1] amounted to 7 nM.
As to `CCNC[C@H]1CCC[C@@H]1c1c[nH]c2ccc(C#N)cc12` (racemic), the 50% inhibitory concentration (IC50) in test [1] was determined as 170 nM.
